{
  "source": "PubChem BioAssay AID588780",
  "about": "(Sanford-Burnham Center for Chemical Genomics, 2011)",
  "note": "Calls of active or inactive are those of the source.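 Rule for the calls: active = compounds whose fitted half-maximal concentration in the cell-protection dose series is at or below a set limit; inactive = the rest.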",
  "data": [
    {"tested_on": "H9c2 cardiomyocytes, 2-deoxyglucose stress, ATP luminescence, 2 h", "assay": "H9c2 cell survival under 2-deoxyglucose stress – uHTS hits, dose response (AID 588780)", "values": [
      {"smiles": "O=[N+]([O-])c1ccc(Nc2nc(N/N=C/c3cccc(F)c3)nc(N3CCCC3)n2)cc1", "IC50": "> 79 µM (inactive)"},
      {"smiles": "COc1ccccc1C(=O)COC(=O)Cn1[nH]c(=O)c2ccccc2c1=O", "IC50": "> 79 µM (inactive)"},
      {"smiles": "CCOC(=O)CNC(=O)CSc1nc2nc(C)c(Br)cc2[nH]1", "IC50": "> 79 µM (inactive)"},
      {"smiles": "O=C(Cn1[nH]c(=O)c2ccccc2c1=O)NC1CCCCCC1", "IC50": "> 79 µM (inactive)"},
      {"smiles": "O=C(c1ccc(-c2nc3ccccc3s2)o1)N1CCN(c2ccccc2O)CC1", "IC50": "12.3 µM"},
      {"smiles": "COc1cc2c(C(=O)NCc3ccccn3)cn(CC(C)C)c(=O)c2cc1OC", "IC50": "54.6 µM (inactive)"},
      {"smiles": "CCN(CC)CCn1c(NC(=O)c2ccc(Cl)cc2)nc2ccccc21", "IC50": "> 79 µM (inactive)"},
      {"smiles": "Cc1c(OCC(=O)NCCN2CCOCC2)ccc2c1oc(=O)c1ccccc12", "IC50": "10.9 µM"},
      {"smiles": "c1cc2[nH]snc2c2nc(C3CC3)nc12", "IC50": "10.2 µM"},
      {"smiles": "O=C(CC(C(=O)c1ccccc1)c1ccccc1)c1ccccc1", "note": "(stereo not drawn)", "IC50": "12.6 µM"},
      {"smiles": "Cc1ccc2c(C)nc(Nc3nc(CSc4nc5ccccc5[nH]4)cc(=O)[nH]3)nc2c1", "IC50": "> 79 µM (inactive)"},
      {"smiles": "COc1cc2nc(C3CCC3)nc(N3CCN(c4ccccn4)CC3)c2cc1OC", "IC50": "> 79 µM (inactive)"},
      {"smiles": "CC(C)(C)OC(=O)NCCCCCNC(=O)c1[nH]cnc1C(=O)Nc1cc(Br)ccc1F", "IC50": "> 79 µM (inactive)"},
      {"smiles": "CCOC(=O)c1cccc(Nc2nc(-c3cccnc3)nc3ccccc23)c1", "IC50": "29.1 µM"},
      {"smiles": "O=C1[C@H]2[C@@H](c3ccc(C(F)(F)F)cc3)N[C@]3(CCCN(Cc4ccc(F)cc4)C3=O)[C@H]2C(=O)N1Cc1ccccc1", "IC50": "> 79 µM (inactive)"},
      {"smiles": "Cc1ccc2nc(-c3ccccc3)cc(C(=O)NNC(=O)c3csc(N4CCOCC4)n3)c2c1", "IC50": "> 79 µM (inactive)"},
      {"smiles": "O=C(NCC(=O)N(Cc1ccccc1)C(C(=O)NC1CCCCC1)c1ccco1)c1ccco1", "note": "(stereo not drawn)", "IC50": "16.2 µM"},
      {"smiles": "Cc1cccc(NC(=O)c2oc3ccc(S(=O)(=O)N4CCOCC4)cc3c2C)c1C", "IC50": "> 79 µM (inactive)"},
      {"smiles": "CC(Oc1cccc(Br)c1)C(=O)NNC(=O)c1ccccn1", "note": "(stereo not drawn)", "IC50": "> 79 µM (inactive)"},
      {"smiles": "CC(C)COP(=O)(OCC(C)C)C(Nc1ccccc1)c1ccc2c(c1)OCO2", "note": "(stereo not drawn)", "IC50": "> 79 µM (inactive)"},
      {"smiles": "Cc1cc(NC(=O)COC(=O)COc2ccc3c4c(c(=O)oc3c2)CCC4)no1", "IC50": "> 79 µM (inactive)"},
      {"smiles": "S=c1[nH]c2ccccc2c2ccccc12", "IC50": "> 79 µM (inactive)"},
      {"smiles": "Cc1c(C2Nc3ccccc3C(=O)N2O)cnn1C", "note": "(stereo not drawn)", "IC50": "14.6 µM"},
      {"smiles": "O=c1[nH]ccc2c(O)cccc12", "IC50": "> 79 µM (inactive)"},
      {"smiles": "COc1cc(-c2cc(NC(C)=O)c3ncc(-c4cc(OC)c(OC)c(OC)c4)n3c2)cc(OC)c1OC", "IC50": "5.28 µM"},
      {"smiles": "COc1ccccc1C(=O)NCC(=O)N/N=C/c1cc(Br)ccc1OC(=O)/C=C\\c1ccco1", "IC50": "> 79 µM (inactive)"},
      {"smiles": "CC(C)(C)c1ccc(OCCCC(=O)NNC(=O)c2ccccc2O)cc1", "IC50": "> 79 µM (inactive)"},
      {"smiles": "COc1cc2ccccc2cc1C(=O)NNC(=O)c1ccccc1O", "IC50": "> 79 µM (inactive)"},
      {"smiles": "CCC1(C)Cc2c(sc3nc(NN)n(C)c(=O)c23)CO1", "note": "(stereo not drawn)", "IC50": "> 79 µM (inactive)"},
      {"smiles": "CCc1nc2ccccc2c(C(=O)OCc2nc3ccccc3c(=O)[nH]2)c1C", "IC50": "23.1 µM"},
      {"smiles": "CC(=NCCCn1ccnc1)c1c(-c2ccccc2)[nH]n(-c2nc3ccccc3s2)c1=O", "IC50": "> 79 µM (inactive)"},
      {"smiles": "O=c1[nH]c2ccccc2n1CCCN1CCC(n2c(=O)[nH]c3cc(Cl)ccc32)CC1", "IC50": "> 79 µM (inactive)"},
      {"smiles": "O=P(Nc1ccccc1)(Oc1ccccc1)Oc1ccccc1", "IC50": "> 79 µM (inactive)"},
      {"smiles": "Cc1ccc2[nH]c(=O)c(CN(CCCN3CCOCC3)C(=O)Nc3ccc(Cl)cc3)cc2c1", "IC50": "> 79 µM (inactive)"},
      {"smiles": "CC(=C/c1ccc(C(C)C)cc1)/C=N/NC(=O)c1ccncc1", "IC50": "> 79 µM (inactive)"},
      {"smiles": "NC(=O)c1nsc(C(=O)N(c2ccccc2)C(C(=O)NCc2ccc(F)cc2)c2ccc(O)cc2)c1N", "note": "(stereo not drawn)", "IC50": "> 79 µM (inactive)"},
      {"smiles": "O=C(Nc1cccnc1)c1sc(Nc2ccccc2)nc1-c1ccccc1", "IC50": "> 79 µM (inactive)"},
      {"smiles": "Clc1nc2sccn2c1/C=N/n1cnc2ccccc21", "IC50": "> 79 µM (inactive)"},
      {"smiles": "O=C(CCc1nc2ccccc2c(=O)[nH]1)Nc1ccc(F)c([N+](=O)[O-])c1", "IC50": "6.81 µM"},
      {"smiles": "COC(=O)c1ccc2c(=O)[nH]c(COC(=O)c3[nH]c(C)c(C(C)=O)c3C)nc2c1", "IC50": "> 79 µM (inactive)"},
      {"smiles": "C1=C(c2ccccc2)CCN(c2nc3ccccc3n3cnnc23)C1", "IC50": "27.6 µM"},
      {"smiles": "COc1ccc2cc3cc(C(=O)NCCc4ccc(OC)c(OC)c4)oc3nc2c1", "IC50": "7.71 µM"},
      {"smiles": "Cc1ccc(C(C(=O)NCc2ccccc2)N(Cc2cccs2)C(=O)c2ccc3c(c2)OCCO3)cc1", "note": "(stereo not drawn)", "IC50": "> 79 µM (inactive)"},
      {"smiles": "CN(C)C(=O)CSc1nc2ccccc2c(=O)[nH]1", "IC50": "> 79 µM (inactive)"},
      {"smiles": "CN(C)S(=O)(=O)c1cccc(NC(=O)COC(=O)c2ccc([N+](=O)[O-])o2)c1", "IC50": "> 79 µM (inactive)"},
      {"smiles": "O=C(N/N=C/c1ccc2c(c1)OCO2)c1ccc(NC(=O)c2ccccc2Cl)cc1", "IC50": "16.2 µM"},
      {"smiles": "CCn1c(O)c(/C=N/N=C2CCCC2)c2ccc(C3=NNC(=O)CC3)cc21", "IC50": "> 79 µM (inactive)"},
      {"smiles": "CN(C(=O)c1sc2nc(N3CCOCC3)c3c(c2c1N)CCCC3)c1ccccc1", "IC50": "5.73 µM"}
    ]}
  ]
}
